One experiment has as its system NF-κB. In words: NF-κB-responsive firefly luciferase reporter assay in bone marrow-derived macrophages. The format is cell-based, mice. On the procedure: (§1) Transduction and Transfection of Bone Marrow-Derived Macrophages and Lung Endothelial Cells: To express an inducible NF-κB responsive firefly luciferase reporter, commercially available lentiviral vector particles (LV) were used (Cignal Lenti NF-κB Reporter; SABiosciences). 2.5×10^5 bone marrow-derived macrophages and 10^5 primary lung endothelial cells (isolated as previously described (Mazzone et al., 2009, see above)) were seeded in a 24-well plate in DMEM 10% FBS or M199 20% FBS for eight hours. Cells were transduced with 10^8 TU/ml. Eight hours after transduction, the medium wash was replaced. After 48 hours, cells were stimulated with TNFα (20 ng/mL) for eight hours and the same amount of protein extract was read in a luminometer. For PHD3 silencing, siRNA oligonucleotides were designed using the Invitrogen online siRNA design tool (world wide web at maidesigner.invitrogen.com). The following sequences (sense strands) and target positions were used: PHD3 siRNA: 5′-[…]-3′ (SEQ ID NO:1); scramble siRNA:5′-[…]-3′ (SEQ ID NO:2). In brief, one day after the transduction of macrophages with LV, cells were transfected using Lipofectamine 2000 (Invitrogen) according to the manufacturer's instructions. Preparation of the oligonucleotide-Lipofectamine 2000 complexes was done as followed: 25 pmol siRNA oligonucleotide (stock: 20 μM) was diluted in 50 μl Opti-MEM I reduced serum medium. Lipofectamine 2000 (1.5 μl) was diluted in 50 μl Opti-MEM I reduced serum medium and incubated for five minutes at room temperature. siRNA oligonucleotides were gently mixed with Lipofectamine 2000 and allowed to incubate at room temperature for twenty minutes to form complexes. Just before transfection, the cell culture medium was removed and cells were rinsed twice with serum-free Opti-MEM I medium. The Lipofectamine 2000-siRNA oligonucleotide complexes were added to each well in 400 μl of serum-free Opti-MEM medium for five hours. Afterwards, cells were incubated in complete medium for 48 hours at 37° C. in a CO2 incubator and assayed for gene knockdown (qRT-PCR) and luciferase activity. To assess if the increased NFkB activity observed in PHD2^+/− macrophages was dependent on the hydroxylase activity of PHD2, 48 hours before transduction, 4×10^6 bone marrow-derived macrophages were resuspended in 240 μl of Opti-MEM and were electroporated (250 V, 950 uF, ∝ Ω) with 7 μg of plasmids expressing a wild-type PHD2 (PHD2^wt) or a PHD2 containing a mutation at the catalytic site (PHD2^H313A).

For a further experiment, the system named is PHD3. Briefly: PHD3 gene knockdown (qRT-PCR) in macrophages. The format is cell-based, mice. On the procedure: as §1, with “To assess if the increased NFkB activity observed in PHD2^+/− macrophages was dependent on the hydroxylase activity of PHD2, 48 hours before transduction, 4×10^6 bone marrow-derived macrophages were resuspended in 240 μl of Opti-MEM and were electroporated (250 V, 950 uF, ∝ Ω) with 7 μg of plasmids expressing a wild-type PHD2 (PHD2^wt) or a PHD2 containing a mutation at the catalytic site (PHD2^H313A).” left out
(In general: Quantitative PCR measures a nucleic acid by following its amplification.)

Experiment [1] concerns hCASMC (Human coronary artery smooth muscle cells). Briefly: SMC migration (Transwell) toward PHD2+/- macrophages. The experiment is classed as cell-based. The note with it: AMD3100 1 μg/ml, imatinib 2.5 μg/ml, alone or combined. The method, then: (§2) Cell Migration and Viability Assays: Migration and proliferation of SMCs and ECs were assessed by using 8 μm-pore Transwell peimeable plate for migration assays and 0.4 μm-pore Transwell permeable plate for proliferation assays (Corning Life Science). To determine cell migration toward the factors secreted by pMØ, pMØ were cultured in the lower chamber for twelve hours in RPMI 1% FBS or in M-199 1% FBS (migration assay), or 48 hours in DMEM-F12 1% FBS or in M-199 1% FBS (proliferation assay). For migration assays, hCASMC (Human coronary artery smooth muscle cells; from Lonza) and HUVEC (Human umbilical vein endothelial cells; from Lonza) were starved for twelve hours in their own medium at 1% FBS and, therefore, seeded in the upper chamber (5×10^3 cells in 200 μl of medium 1% FBS), with or without AMD3100 (1 μg/ml, Sigma-Aldrich, Dorset, U.K) and imatinib (2.5 μg/ml, Novartis). SMCs and HUVECs were incubated for two days or 24 hours, respectively, and migrated cells were fixed with 4% PFA, stained with 0.25% crystal violet/50% methanol and counted under the microscope. VEGF (100 ng/mL, R&D), PDGFB (100 ng/mL, R&D) or SDF 1 (100 ng/mL, R&D) were used as positive controls. […] The cell proliferative ability was then analyzed using WST-1 Cell Proliferation Assay (Roche Applied Biosciences) according to the manufacturer instructions after 24 hours of coculture with the pMØ. […]

The subject of experiment [2] is RAOSMC (Rat Aortic Smooth Muscle Cells). Briefly: SMC growth assay (WST-1) in coculture with PHD2+/- macrophages. The experiment is classed as cell-based. The note with it: AMD3100, imatinib, alone or combined. On the procedure: as §2
In experiment [3] the test system is secondary and tertiary collateral arterioles. Briefly: Collateral vessel formation in bone marrow transplanted mice treated with AMD3100/imatinib (gelatin bismuth angiography). The experiment is classed as in vivo. The method, then: Mouse Model of Hindlimb Ischemia: To induce hind limb ischemia, unilateral or bilateral ligations of the femoral artery and vein (proximal to the popliteal artery) and the cutaneous vessels branching from the caudal femoral artery side branch were performed without damaging the nervus femoralis (Luttun et al., Nat. Med. 8:831-840, 2002). By using this procedure, collateral flow to adductor muscles is preserved via arterioles branching from the femoral artery, therefore, 50% up to 60% of perfusion is preserved by this method. Two superficial preexisting collateral arterioles connecting the femoral and saphenous arteries were used for analysis. Functional perfusion measurements of the collateral region were performed using a Lisca PIM II camera (Gambro). Gelatin bismuth-based angiography was perfottned as described (Carmeliet et al., Nat. Med. 7:575-583, 2001) and analyzed by photoangiographs (Nikon D1 digital camera). Collateral side branches were categorized as follows: second-generation collateral arterioles directly branched off from the main collateral, whereas third-generation collateral arterioles were orientated perpendicularly to the second-generation branches. The number of secondary and tertiary collateral arterioles was counted. After perfusion-fixation, the muscle tissue between the two superficial collateral arterioles (adductor) was post-fixed in 2% paraformaldehyde (PFA) and paraffin-embedded, and were morphometrically analyzed. An endurance treadmill-running test was perfatmed at 12, 24, 48, and 72 hours after bilateral femoral artery ligation.
(§3) Bone Marrow (BM) Transplantation and Hematological Analysis: Balb/c WT and PHD2^+/− recipient mice were irradiated with 7.5 Gy. Subsequently, 5×10^6 bone marrow cells from green fluorescent protein^+ (GFP^+) WT or GFP^+ PHD2^+/− mice were injected intravenously via the tail vein. After one week, saline or AMD3100 (5 mg/kg) was administered intravenously and saline or imatinib ([…]) was administered by oral gavage for four weeks. Femoral artery ligation, treadmill running test and bismuth angiography were performed at six weeks after bone marrow reconstitution. Red and white blood cell count was determined using a hemocytometer on peripheral blood collected in heparin with capillary pipettes by retro-orbital bleeding. To assess the effect of acute deletion of macrophage-borne PHD2 on arteriogenesis, PHD2^Rosa26CreERT;lox/wt bone marrows were transplanted into lethally irradiated WT recipient mice. After five weeks, transplanted mice were injected i.p. with tamoxifen (1 mg/mouse; Sigma) or vehicle for five days. TEM quantification and femoral artery ligation were performed ten days after tamoxifen treatment as explained above. The bone marrow of PHD2^WT;Tie2:GFP or PHD2^HE;Tie2:GFP mice was transplanted in lethally irradiated WT mice. After five weeks, mice were injected systemically (5×10^11 vp) and locally (5×10^9 vp in two points of the adductor) with an AAV9 encoding the mouse extracellular domain of Tie2 fused to a flag tag (AAV9:sTie2). AAV9 encoding the human serum albumin was used as control. One week after injection of the viral vector, mice were subjected to femoral artery ligation. Blood and adductor samples were harvested at baseline and 72 hours post-ischemia and used to sort CD115^+GFP^+ circulating monocytes and F4/80^+GFP^+ macrophages.

Experiment [4] concerns collateral branches, circulating TEMs. Briefly: Acute PHD2 deletion by tamoxifen in HERosa26CreERT→WT mice: TEMs, collaterals, ischemic damage. The format is in vivo. On the procedure:
as §3

The next experiment deals with PHD2. Briefly: PHD2 expression (qPCR) in bone marrow-derived monocyte/macrophage cultures upon cytokine stimulation. The experiment is classed as cell-based, mice. The note with it: for PHD2 transcripts: WT cultures, any of the concentrations tested (50 and 250 ng/mL). On the procedure: Quantitative PCR Analysis: In order to investigate gene expression in pMØ, quantitative RT-PCR (qRT-PCR) was performed. After preparing pMØ, the cells were cultured in normoxic condition for twelve hours, and the RNA was extracted. To analyze the gene profile of adductor, gastrocnemius, and soleus muscle, tissues were collected at baseline or 24 hours/72 hours post-ischemia and RNA was extracted. Macrophages and ECs were freshly sorted from dissected adductors as described below and RNA was extracted. Quantitative RT-PCR was perfouned with commercially available or homemade primers and probes for the studied genes. The assay ID (Applied Biosystems, Foster City, Calif.) or the sequence of primers and probes (when homemade) are listed in Table 5. RNA levels of Tie-2, SDF1 and PDGFB after inhibition of NF-κB pathway were measured by qRT-PCR on pMØ exposed for twelve hours to 500 nM 6-amino-4-(4-phenoxyphenylethylamino)quinazoline. […] After 24 hours, cells were harvested for RNA extraction and cDNA preparation.

[5] abbreviates: HE→WT mice, daily AMD3100 5 mg/kg or imatinib 50 mg/kg alone.
The mark [6] stands for this setting: tamoxifen 1 mg/mouse for five days.

As for “5′-GCCGGCUGGGCAAAUACUAUGUCA-3′ (SEQ ID NO:1) [PHD3 siRNA]”, the entries for the “induction of NF-κB activity vs scramble control” value in the experiment with NF-κB (PHD2LysCre;lox/lox macrophages), in the experiment on NF-κB (PHD2LysCre;lox/wt macrophages) and in the experiment with NF-κB (PHD2LysCre;wt/wt macrophages) were 70%, 14% and 22%, respectively. Besides, the results for the “knockdown of PHD3 vs scramble control” value with PHD3 (PHD2LysCre;lox/lox macrophages), in the experiment with PHD3 (PHD2LysCre;lox/wt macrophages) and in the experiment on PHD3 (PHD2LysCre;wt/wt macrophages) were 37±0.01%, 60±0.04% and 63±0.03%, respectively.

As for `c1cc(CN2CCCNCCNCCCNCC2)ccc1CN1CCCNCCNCCCNCC1` [AMD3100], in experiment [1], the “migration of SMCs toward PHD2+/- macrophages” value is “not effective”. Also, the “increased SMC growth by PHD2+/- macrophages” value in experiment [2] is recorded as “abrogated”. Besides, in experiment [3] (setting [5]), the “increased formation of second generation collateral branches” value was “only partially prevented” and the third generation collaterals result is “affected”. The “number of collateral branch arteries” value in experiment [3] (WT→WT mice, alone or in combination) is recorded as “not affected”.

As for `CC/C(=C(\c1ccccc1)c1ccc(OCCN(C)C)cc1)c1ccccc1` [tamoxifen], the ischemic damage entry in experiment [4] (72 hours after femoral artery ligation) was “greatly reduced”. In experiment [4] (14 days after tamoxifen 1 mg/mouse for five days, vs vehicle), the “circulating TEMs” value is “almost three-fold increased”. In addition, in experiment [4] (setting [6]), the “secondary collateral branches, abundance vs vehicle” value was determined as 1.6 times and the “tertiary collateral branches, abundance vs vehicle” value is reported as 2.3 times.

“MCP1: monocyte chemotactic protein-1, ischemia-induced cytokine”: the PHD2 transcripts result in the experiment with PHD2 was “did not affect”.

On to “SDF1: Stromal cell-derived factor 1, alpha chemokine”, for which the PHD2 transcripts entry with PHD2 is listed as “did not affect”.

With VEGF, the PHD2 transcripts result in the experiment with PHD2 is recorded as “did not affect”.

B1: PlGF: ischemia-induced cytokine (protein, UniProt P49763 19-221, looked up)
Placenta growth factor: LPAVPPQQWALSAGNGSSEVEVVPFQEVWGRSYCRALERLVDVVSEYPSEVEHMFSPSCVSLLRCTGCCGDENLHCVPVETANVTMQLLKIRSGDRPSYVELTFSQHVRCECRHSPGRQSPDMPGDFRADAPSFLPPRRSLPMLFRMEWGCALTGSQSAVWPSSPVPEEIPRMHPGRNGKKQQRKPLREKMKPERCGDAVPRR
On to B1, for which, in the experiment on PHD2, the PHD2 transcripts entry is given as “did not affect”.

B2: PDGFB: platelet-derived growth factor beta protein (protein, UniProt P01127 82-190, looked up)
Platelet-derived growth …: SLGSLTIAEPAMIAECKTRTEVFEISRRLIDRTNANFLVWPPCVEVQRCSGCCNNRNVQCRPTQVQLRPVQVRKIEIVRKKPIFKKATVTLEDHLACKCETVAAARPVT
For B2, in the experiment on PHD2, the PHD2 transcripts entry is reported as “did not affect”.

B3: angiopoietin-2: Tie2 ligand cytokine (Prospec) (protein, UniProt O15123 19-496, looked up)
Angiopoietin-2: YNNFRKSMDSIGKKQYQVQHGSCSYTFLLPEMDNCRSSSSPYVSNAVQRDAPLEYDDSVQRLQVLENIMENNTQWLMKLENYIQDNMKKEMVEIQQNAVQNQTAVMIEIGTNLLNQTAEQTRKLTDVEAQVLNQTTRLELQLLEHSLSTNKLEKQILDQTSEINKLQDKNSFLEKKVLAMEDKHIIQLQSIKEEKDQLQVLVSKQNSIIEELEKKIVTATVNNSVLQKQQHDLMETVNNLLTMMSTSNSAKDPTVAKEEQISFRDCAEVFKSGHTTNGIYTLTFPNSTEEIKAYCDMEAGGGGWTIIQRREDGSVDFQRTWKEYKVGFGNPSGEYWLGNEFVSQLTNQQRYVLKIHLKDWEGNEAYSLYEHFYLSSEELNYRIHLKGLTGTAGKISSISQPGNDFSTKDGDNDKCICKCSQMLTGGWWFDACGPSNLNGMYYPQRQNTNKFNGIKWYYWKGSGYSLKATTMMIRPADF
Take B3: the “reduction of PHD2 levels” value in the experiment with PHD2 (WT monocytes/macrophages, only at 50 ng/ml) was 15%.

For the origin of these results see patent US20130078224A1, “INDUCTION/MONITORING OF ARTERIOGENESIS USING SDF1 AND PDGFB OR INHIBITION OF PHD2” (LIFE SCIENCES RESEARCH PARTNERS VZW, priority 2010, published 2013).
